The test concerns the target T1, Human Polymorphonuclear Leukocyte Elastase (Homo sapiens, UniProt P08246).
T1 construct: Crude extract of human polymorphonuclear leukocytes (PMN) containing elastase activity; endogenous in cells; host or cells: human polymorphonuclear leukocytes (crude extract)
T1 sequence (P08246 30-267): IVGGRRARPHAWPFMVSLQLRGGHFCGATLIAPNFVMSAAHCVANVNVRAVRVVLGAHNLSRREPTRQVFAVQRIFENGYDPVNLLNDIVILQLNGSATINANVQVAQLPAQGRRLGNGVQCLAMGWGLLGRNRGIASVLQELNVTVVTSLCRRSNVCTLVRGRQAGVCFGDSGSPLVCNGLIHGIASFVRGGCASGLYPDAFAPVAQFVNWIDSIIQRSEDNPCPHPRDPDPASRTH
The test can be described thus: Enzyme assay for inhibition of human PMN elastase via hydrolysis of Boc-AAPAN. It is filed as biochemical. To be noted: % decrease in ΔOD/min at 410 mμ within 2 minutes vs control, crude PMN extract; for inhibition at 50 µg/mL: Conc. of compound 50 μg/ml. The procedure:
Protocol--Enzyme Assays for the Inhibition of Human Polymorphonuclear Leukocyte Elastase Via Hydrolysis of N-t-Boc-alanyl-alanyl-prolylanaline-pnitroanilide Reagents:
0.05M TES (N-tris[hydroxymethyl]methyl-2-amino-ethanesulfonic acid) Buffer, pH 7.5.
0.2 mM N-t-Boc-alanyl-alanyl-Prolyl-Alanine-p-nitroanilide (Boc-AAPAN).
To prepare substrate, the solid (m.w. 550) was first dissolved in 10.0 ml DMSO. Buffer at pH 7.5 was then added to a final volume of 100 ml.
Crude extract of human polymorphonuclear leukocytes (PMN) containing elastase activity.
Inhibitors (cephalosporins) to be tested dissolved in DMSO just before use.
To 1.0 ml of 0.2 mM Boc-AAPAN in a cuvette, 0.01-0.1 ml of DMSO with or without inhibitor was added. After mixing, a measurement was taken at 410 mμ to detect any spontaneous hydrolysis due to presence of test compound. 0.05 Milliliters of PMN extract was then added and the ΔOD/min at 410 mμ was measured and recorded. Beckman model 35 spectrophotometer was used.
The elastase activity in the crude PMN extract may vary from one preparation to another. A control of each new batch is run, and the volume added in the assay procedure is adjusted according to activity.

Each structure is given as a SMILES string.

Regarding `CO[C@@]1(NC(=O)CSCC#N)C(=O)N2C(C(=O)OCOC(=O)C(C)(C)C)=C(CSc3nnnn3C)CSC21` (some centres unmarked), the inhibition (in general, the drop in the measured response relative to a control, in per cent) at 50 µg/mL was determined as 81%. Where the note is “Conc. of compound 5 μg/ml”, this compound gave an inhibition at 5 µg/mL of 41%. The inhibition at 10 µg/mL (Conc. of compound 10 μg/ml) came out at 53%. Under “Conc. of compound 25 μg/ml”, this compound registered an inhibition at 25 µg/mL of 78%.

As to `COC1(NC(=O)Cc2cccs2)C(=O)N2C(C(=O)OCC(=O)COC(=O)C(C)(C)C)=C(COC(N)=O)CSC21` (centres unmarked), the inhibition at 50 µg/mL worked out at 37%.

`C=CCCOC(=O)C1=C(COC(N)=O)CSC2N1C(=O)C2(NC(=O)Cc1cccs1)OC` (centres unmarked) displayed an inhibition at 50 µg/mL of 50%.

The compound `COC1(NC(=O)CSCC#N)C(=O)N2C(C(=O)OC3OC(=O)c4ccccc43)=C(CSc3nnnn3C)CSC21` (centres unmarked) came in with an inhibition at 50 µg/mL of 41%.

In the case of `C=CCCOC(=O)C1=C(COC(C)=O)CSC2C(NC(=O)Cc3cccs3)C(=O)N12` (centres unmarked), testing at 50 µg/mL gave an inhibition of 56%.

Values taken from US4891370A, “Cephalosporin derivatives as anti-inflammatory agents” (Merck & Co., Inc., priority 1981, dated 1990).
